From the supplement of paper PMC5908809

What was measured:
[1] = tested on: normal NK cells expanded with K562-aAPC; experiment: percent inhibition of viability; higher = more inhibition; conditions: 72 h, IL-2 2.5 ng/mL
Procedure: (§1)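 Drug sensitivity and resistance testing on K562-aAPC-expanded normal NK cells: 5 concentrations (10-fold steps over a 10,000-fold range), 72 h at 37 °C, viability by CellTiter-Glo normalised to DMSO and benzethonium chloride controls; DSS from the fitted curve.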

[2] = tested on: DERL-7 (IL-2 2.5 ng/mL); experiment: as above; conditions: 72 h
[3] = tested on: IMC-1 (IL-2 20 ng/mL); experiment: as above; conditions: 72 h
[4] = tested on: KAI3 (IL-2 2.5 ng/mL); experiment: as above; conditions: 72 h
[5] = tested on: KHYG-1 (IL-2 2.5 ng/mL); experiment: as above; conditions: 72 h
[6] = tested on: NK-92 (IL-2 2.5 ng/mL); experiment: as above; conditions: 72 h
[7] = tested on: NK-YS (IL-2 2.5 ng/mL); experiment: as above; conditions: 72 h
[8] = tested on: NKL (IL-2 2.5 ng/mL); experiment: as above; conditions: 72 h
[9] = tested on: SNK-6 (IL-2 2.5 ng/mL); experiment: as above; conditions: 72 h
[10] = tested on: YT (IL-2 2.5 ng/mL); experiment: as above; conditions: 72 h
[11] = tested on: normal primary NK cells, pool 1 (3 donors) (IL-2 2.5 ng/mL); experiment: as above; conditions: 72 h
[12] = tested on: normal primary NK cells, pool 1 (3 donors), resting (IL-2 0 ng/mL); experiment: as above; conditions: 72 h
[13] = tested on: normal primary NK cells, pool 2 (3 donors) (IL-2 2.5 ng/mL); experiment: as above; conditions: 72 h
[14] = tested on: normal primary NK cells, pool 3 (3 donors) (IL-2 2.5 ng/mL); experiment: as above; conditions: 72 h
[15] = tested on: normal NK cells expanded with K562-aAPC; experiment: drug sensitivity score (DSS) (DSS units); higher = more sensitive; extreme values may be limits of the assay; conditions: 72 h; IL-2 2.5 ng/mL
Procedure: as §1

[16] = tested on: DERL-7 (IL-2 2.5 ng/mL); experiment: as above; conditions: 72 h
[17] = tested on: IMC-1 (IL-2 20 ng/mL); experiment: as above; conditions: 72 h
[18] = tested on: KAI3 (IL-2 2.5 ng/mL); experiment: as above; conditions: 72 h
[19] = tested on: KHYG-1 (IL-2 2.5 ng/mL); experiment: as above; conditions: 72 h
[20] = tested on: NK-92 (IL-2 2.5 ng/mL); experiment: as above; conditions: 72 h
[21] = tested on: NK-YS (IL-2 2.5 ng/mL); experiment: as above; conditions: 72 h
[22] = tested on: NKL (IL-2 2.5 ng/mL); experiment: as above; conditions: 72 h
[23] = tested on: SNK-6 (IL-2 2.5 ng/mL); experiment: as above; conditions: 72 h
[24] = tested on: YT (IL-2 2.5 ng/mL); experiment: as above; conditions: 72 h
[25] = tested on: normal primary NK cells, pool 1 (3 donors) (IL-2 2.5 ng/mL); experiment: as above; conditions: 72 h
[26] = tested on: normal primary NK cells, pool 1 (3 donors), resting (IL-2 0 ng/mL); experiment: as above; conditions: 72 h
[27] = tested on: normal primary NK cells, pool 2 (3 donors) (IL-2 2.5 ng/mL); experiment: as above; conditions: 72 h
[28] = tested on: normal primary NK cells, pool 3 (3 donors) (IL-2 2.5 ng/mL); experiment: as above; conditions: 72 h

Nc1nc(Cl)nc2c1ncn2[C@@H]1O[C@H](CO)[C@@H](O)[C@@H]1F [Clofarabine] (max concentration tested 10000 nM)
percent inhibition of viability [%]
Conditions	1 nM	10 nM	100 nM	1000 nM	10000 nM
[1]	-7.69	10	99.8	100	101
[2]	-6.34	12.4	98.8	100	100
[3]	-5.2	-10.7	83.5	99.8	100
[4]	-5.93	2	84.8	100	103
[5]	-5.63	-3.93	98.4	101	102
[6]	-17	2.38	98.2	101	104
[7]	-2.94	-3.43	73.3	96.5	100
[8]	-14.3	-3.55	97.4	102	105
[9]	-9.36	-23.6	95	96.3	98.6
[10]	-2.64	-4.64	17.5	78.8	85.4
[11]	1.34	32.7	95.2	96.8	97.6
[12]	-1.53	61.1	92.3	90.6	93.4
[13]	1.6	18	90.5	95	96.2
[14]	-5.8	12.6	91	98.5	99.3

Conditions	drug sensitivity score
[15]	32.1
[16]	32.5
[17]	27.6
[18]	28
[19]	29.9
[20]	30.5
[21]	26.4
[22]	29.8
[23]	28.5
[24]	16.8
[25]	33.7
[26]	35.8
[27]	31
[28]	30.7

CCN(CC)CCOc1ccc(C(=C(Cl)c2ccccc2)c2ccccc2)cc1 [Clomifene] (max concentration tested 10000 nM)
percent inhibition of viability [%]
Conditions	1 nM	10 nM	100 nM	1000 nM	10000 nM
[1]	-4.27	-4.95	6.21	5.94	49.9
[2]	4.06	0.91	9.39	20.4	79.7
[3]	-0.71	-1.19	4.94	7.46	81.3
[4]	3.86	7.81	10.3	17.6	99.2
[5]	0.74	-4.89	7.01	8.03	98
[6]	-3.93	-4.07	20.1	22.8	99.2
[7]	-0.14	0.6	4.95	5.57	51.9
[8]	9.73	-5.45	18.5	9.46	89.1
[9]	23.4	4.68	23.5	22.9	96.8
[10]	2.71	-4.92	7.54	1.85	97.5
[11]	-14.7	-1.65	-8.5	6.72	89.3
[12]	-1.08	10.5	-7.5	11	90.7
[13]	-3.18	-2.06	-0.72	14.9	80.9
[14]	2.17	1.82	-1.1	13.6	53.4

Conditions	drug sensitivity score
[15]	3.63
[16]	7.34
[17]	5.71
[18]	8.38
[19]	6.7
[20]	8.7
[21]	3.68
[22]	6.51
[23]	8.37
[24]	5.67
[25]	5.98
[26]	6.86
[27]	6.93
[28]	4.97

CC1(COc2ccc3c(c2)ncn3-c2ccc3cccc(N4CCC(N)CC4)c3n2)COC1 [Crenolanib] (max concentration tested 10000 nM)
percent inhibition of viability [%]
Conditions	1 nM	10 nM	100 nM	1000 nM	10000 nM
[1]	-3.71	-1.22	-0.36	37.5	101
[2]	9.4	0.68	2.82	50.6	101
[3]	-5.33	1.06	0.71	5.26	101
[4]	-3.85	-6.78	-18.2	10.7	102
[5]	2.86	-0.81	5.22	18.1	99.8
[6]	-3.46	-7.66	2.06	50.1	102
[7]	-3.61	-4.32	-1.2	16.6	101
[8]	12.4	0.04	22.6	53	103
[9]	21.7	16.3	25	54.8	101
[10]	4.17	1.51	11.1	24.2	99.7
[11]	2.4	-5.93	-3.03	22.4	100
[12]	-7.18	-27.8	-5.86	-10.3	98.2
[13]	-14.1	-6.62	2.71	32	99.4
[14]	-13.7	-6.99	10.3	22.4	100

Conditions	drug sensitivity score
[15]	10.6
[16]	11.6
[17]	6.39
[18]	7.36
[19]	8.48
[20]	11.7
[21]	8.29
[22]	13.3
[23]	15.2
[24]	9.15
[25]	9.05
[26]	4.78
[27]	10.1
[28]	9.06
